Test results reported in ChEMBL document CHEMBL1201862, “PubChem BioAssay data set” (2004).
The source made the active and inactive calls.

Experiments:
[1] = target: T1, Short transient receptor potential channel 4 (Mus musculus, UniProt Q9QUQ5); assay: mouse TRPC4 channel activators, dose response, cell-based, HEK293 TRPC4/mu-opioid, Fluo-4 calcium (AID 434937); type: functional
T1 sequence (Q9QUQ5 whole entry): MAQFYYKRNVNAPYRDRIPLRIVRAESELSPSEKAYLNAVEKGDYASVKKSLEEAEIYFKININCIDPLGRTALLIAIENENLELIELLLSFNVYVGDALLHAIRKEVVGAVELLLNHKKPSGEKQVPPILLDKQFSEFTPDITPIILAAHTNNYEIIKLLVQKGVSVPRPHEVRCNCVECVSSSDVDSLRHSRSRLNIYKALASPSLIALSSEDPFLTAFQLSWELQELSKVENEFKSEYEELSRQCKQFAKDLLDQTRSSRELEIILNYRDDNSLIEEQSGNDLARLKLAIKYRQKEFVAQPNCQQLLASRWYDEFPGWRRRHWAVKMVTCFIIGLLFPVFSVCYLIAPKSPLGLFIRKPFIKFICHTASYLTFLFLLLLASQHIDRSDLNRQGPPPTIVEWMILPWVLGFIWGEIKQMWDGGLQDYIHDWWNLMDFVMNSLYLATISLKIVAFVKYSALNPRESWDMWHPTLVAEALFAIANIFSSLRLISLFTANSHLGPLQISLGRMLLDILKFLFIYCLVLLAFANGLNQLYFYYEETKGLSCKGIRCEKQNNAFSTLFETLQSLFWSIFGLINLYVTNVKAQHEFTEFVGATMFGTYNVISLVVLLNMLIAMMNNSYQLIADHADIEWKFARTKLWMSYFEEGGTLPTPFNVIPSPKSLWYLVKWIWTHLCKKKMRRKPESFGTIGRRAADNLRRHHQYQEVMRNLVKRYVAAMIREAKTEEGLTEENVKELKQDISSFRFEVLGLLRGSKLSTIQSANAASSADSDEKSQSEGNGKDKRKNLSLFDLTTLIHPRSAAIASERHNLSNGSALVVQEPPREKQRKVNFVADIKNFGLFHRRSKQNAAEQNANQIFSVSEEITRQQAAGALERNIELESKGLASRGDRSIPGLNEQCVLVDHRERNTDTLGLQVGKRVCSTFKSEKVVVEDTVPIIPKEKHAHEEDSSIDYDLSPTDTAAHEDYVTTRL

[2] = target: Delta-type opioid receptor (Homo sapiens, UniProt P41143); assay: Counterscreen for agonists of heterodimerization of the mu 1 (OPRM1) and delta 1 (OPRD1) opioid receptors: Luminescence-based cell-based high throughput dose response assay to identify agonists of OPRD1 homodimerization. [Related pubchem assays (depositor defined):AID504326, AID504355, AID504692, AID504904, AID504905]; type: functional
[3] = target: 5-hydroxytryptamine receptor 5A (Homo sapiens, UniProt P47898); assay: Counterscreen for agonists of OPRM1-OPRD1 heterodimerization: luminescence-based cell-based high throughput dose response assay to identify agonists of 5-hydroxytryptamine (serotonin) 5A receptor (HTR5A). [Related pubchem assays (depositor defined):AID504326, AID504355, AID504692, AID504904, AID504905]; type: functional
Mu-type opioid receptor = Mu-type opioid receptor (Homo sapiens, UniProt P35372); assay: Counterscreen for agonists of heterodimerization of the mu 1 (OPRM1) and delta 1 (OPRD1) opioid receptors: Luminescence-based cell-based high throughput dose response assay to identify agonists of OPRM1 homodimerization.; type: functional;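 further: U2OS cells expressing OPRM1 and beta-arrestin as split beta-galactosidase partners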
Insulin-degrading enzyme [4] = target: T2, Insulin-degrading enzyme (Homo sapiens, UniProt P14735); assay: activators of recombinant IDE enzyme, dose response, counter-screen for IDE activator project, biochemical, fluorescence polarization (AID 588681)
T2 sequence (P14735 whole entry): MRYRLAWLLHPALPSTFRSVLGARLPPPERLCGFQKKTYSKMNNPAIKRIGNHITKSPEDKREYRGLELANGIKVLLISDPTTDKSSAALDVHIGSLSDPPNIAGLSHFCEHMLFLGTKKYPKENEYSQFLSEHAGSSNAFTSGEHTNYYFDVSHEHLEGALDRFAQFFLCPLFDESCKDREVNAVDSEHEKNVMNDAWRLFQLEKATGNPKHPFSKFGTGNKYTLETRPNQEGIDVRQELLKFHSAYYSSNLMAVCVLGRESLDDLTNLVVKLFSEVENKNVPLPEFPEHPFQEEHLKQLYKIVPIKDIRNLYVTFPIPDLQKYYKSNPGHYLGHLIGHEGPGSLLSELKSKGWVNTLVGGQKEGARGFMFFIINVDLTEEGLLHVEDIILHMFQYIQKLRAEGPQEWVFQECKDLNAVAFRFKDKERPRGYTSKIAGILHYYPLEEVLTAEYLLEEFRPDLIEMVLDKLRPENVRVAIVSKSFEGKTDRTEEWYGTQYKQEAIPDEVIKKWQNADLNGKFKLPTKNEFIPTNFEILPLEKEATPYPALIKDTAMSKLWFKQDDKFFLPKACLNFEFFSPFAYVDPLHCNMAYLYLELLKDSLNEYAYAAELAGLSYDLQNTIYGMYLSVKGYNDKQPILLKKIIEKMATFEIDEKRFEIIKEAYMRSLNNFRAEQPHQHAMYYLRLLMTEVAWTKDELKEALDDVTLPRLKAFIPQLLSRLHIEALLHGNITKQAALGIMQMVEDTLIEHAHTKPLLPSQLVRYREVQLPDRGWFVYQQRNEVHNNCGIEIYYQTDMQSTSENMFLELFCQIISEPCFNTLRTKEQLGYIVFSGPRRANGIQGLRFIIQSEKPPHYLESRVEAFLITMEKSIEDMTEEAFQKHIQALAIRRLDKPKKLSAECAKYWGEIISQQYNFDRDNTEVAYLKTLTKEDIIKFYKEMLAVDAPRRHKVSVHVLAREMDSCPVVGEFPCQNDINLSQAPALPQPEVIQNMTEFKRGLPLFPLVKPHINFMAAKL

HEK293 [5] = assay: optical interference in Abeta FP readout, dose response, artefact control for IDE activator project, biochemical, fluorescence polarization (AID 588442); type: functional, cell-based; details: Homo sapiens
Insulin-degrading enzyme [6] = target: T2, Insulin-degrading enzyme; assay: activators of endogenous IDE in HEK cells, dose response, cell-based, fluorescence polarization (AID 588439); type: functional
HEK293 [7] = assay: cells; details: Homo sapiens
[8] = target: T3, G-protein coupled receptor 55 (Homo sapiens, UniProt Q9Y2T6); assay: GPR55 antagonists blocking LPI-driven arrestin recruitment, primary screen, imaging, U2OS, beta-arrestin-GFP, LPI agonist (AID 2013); type: functional;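 further: antagonist potency measured as reduced agonist-driven arrestin aggregation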
BJ [9] = assay: cytotoxicity toward Ras-transformed BJeLR fibroblasts, dose response, cell-based, alamar blue fluorescence, cherrypicked samples (AID 2631); type: functional; details: Homo sapiens;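 further: confirmatory dose-response assay in RAS-dependent BJ fibroblasts engineered with TERT, LT and ST, with cytotoxicity read by fluorescence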
BJ [10] = assay: cytotoxicity toward BJ-TERT fibroblasts, dose response, cell-based, RAS-independent, luminescence (AID 1933); type: functional; details: Homo sapiens
[11] = cytotoxicity toward DRD oncogenic fibroblasts, dose response, cell-based, non-viral oncogenic, luminescence (AID 1934); type: functional; details: Homo sapiens
[12] = target: T4, Replicative DNA helicase DnaB (Mycobacterium tuberculosis, UniProt P9WMR3); assay: DnaB intein splicing inhibitors, dose response, biochemical, cell-free fluorescence (AID 449749); type: functional
T4 sequence (P9WMR3 whole entry): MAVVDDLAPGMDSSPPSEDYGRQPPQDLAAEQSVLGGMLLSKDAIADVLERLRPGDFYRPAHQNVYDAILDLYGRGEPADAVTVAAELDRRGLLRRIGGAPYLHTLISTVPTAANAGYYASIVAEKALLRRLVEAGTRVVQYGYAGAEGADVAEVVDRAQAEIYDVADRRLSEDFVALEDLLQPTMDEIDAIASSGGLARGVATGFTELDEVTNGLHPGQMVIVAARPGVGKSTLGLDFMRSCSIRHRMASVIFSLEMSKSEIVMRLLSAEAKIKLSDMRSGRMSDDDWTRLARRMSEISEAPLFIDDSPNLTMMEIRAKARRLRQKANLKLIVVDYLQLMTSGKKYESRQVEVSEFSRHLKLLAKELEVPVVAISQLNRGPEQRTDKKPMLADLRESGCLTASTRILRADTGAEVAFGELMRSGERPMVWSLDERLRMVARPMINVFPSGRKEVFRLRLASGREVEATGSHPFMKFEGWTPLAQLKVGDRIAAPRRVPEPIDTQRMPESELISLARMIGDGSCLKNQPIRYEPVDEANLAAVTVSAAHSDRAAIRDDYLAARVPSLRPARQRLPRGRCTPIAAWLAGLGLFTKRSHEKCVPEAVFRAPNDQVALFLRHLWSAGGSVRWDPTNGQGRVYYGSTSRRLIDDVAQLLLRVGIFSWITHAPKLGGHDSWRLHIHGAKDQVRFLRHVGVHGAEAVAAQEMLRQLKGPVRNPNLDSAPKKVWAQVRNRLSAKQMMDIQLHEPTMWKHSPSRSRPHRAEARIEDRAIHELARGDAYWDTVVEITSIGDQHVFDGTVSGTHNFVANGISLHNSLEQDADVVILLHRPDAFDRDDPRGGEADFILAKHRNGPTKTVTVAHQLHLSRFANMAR

Protein RecA = target: T5, Protein RecA (Mycobacterium tuberculosis, UniProt P9WHJ3); assay: Fluorescence Cell-Free Homogeneous Dose Retest to Identify Inhibitors of RecA-Intein Splicing Activity. [Related pubchem assays (depositor defined):AID2097, AID2223, AID489010, AID492950]; type: functional
T5 sequence (P9WHJ3 whole entry): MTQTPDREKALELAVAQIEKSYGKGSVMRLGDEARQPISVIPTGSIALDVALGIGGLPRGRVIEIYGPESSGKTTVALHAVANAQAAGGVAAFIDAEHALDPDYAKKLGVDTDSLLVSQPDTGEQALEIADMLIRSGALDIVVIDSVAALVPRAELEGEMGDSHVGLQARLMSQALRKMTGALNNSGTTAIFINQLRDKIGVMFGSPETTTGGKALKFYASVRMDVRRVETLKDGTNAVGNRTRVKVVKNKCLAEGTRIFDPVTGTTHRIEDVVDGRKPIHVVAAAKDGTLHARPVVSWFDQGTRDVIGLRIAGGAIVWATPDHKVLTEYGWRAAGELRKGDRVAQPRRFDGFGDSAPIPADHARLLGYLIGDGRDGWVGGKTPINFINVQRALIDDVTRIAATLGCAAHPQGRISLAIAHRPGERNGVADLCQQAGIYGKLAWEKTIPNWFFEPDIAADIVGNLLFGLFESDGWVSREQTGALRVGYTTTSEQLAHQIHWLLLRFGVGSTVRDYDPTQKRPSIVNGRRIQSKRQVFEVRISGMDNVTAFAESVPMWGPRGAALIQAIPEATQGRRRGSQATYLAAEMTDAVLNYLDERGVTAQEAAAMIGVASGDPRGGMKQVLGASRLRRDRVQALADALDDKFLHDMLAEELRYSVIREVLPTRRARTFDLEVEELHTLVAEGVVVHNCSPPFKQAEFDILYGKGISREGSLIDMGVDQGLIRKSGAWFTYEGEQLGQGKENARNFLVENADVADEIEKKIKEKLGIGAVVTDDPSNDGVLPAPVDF

Vero = assay: cells; type: functional; details: Chlorocebus sabaeus
HEK293 [13] = assay: HEK cell cytotoxicity by LDH release, dose response, cytotoxicity control for IDE activator project, fluorescence, HEK cells (AID 588440); type: functional, cell-based; details: Homo sapiens;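 further: cytotoxicity by LDH release measuring loss of membrane integrity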
BJ [14] = assay: cells; type: functional, cell-based; details: Homo sapiens
BJ [15] = assay: cytotoxicity toward BJ-TERT-LT-ST fibroblasts, dose response, cell-based, RAS-independent, luminescence (AID 1935); type: functional; details: Homo sapiens;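 further: BJ fibroblasts immortalized with TERT plus LT and ST oncogenes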
[16] = target: T3, G-protein coupled receptor 55; assay: GPR55 agonists via beta-arrestin recruitment, primary screen, imaging, U2OS cells, beta-arrestin-GFP redistribution (AID 1961); type: functional
HEK293 [17] = assay: cells; details: Homo sapiens; remark: listed apart in the source
Escherichia coli = assay: microbe, parasite or virus in culture
A-375 [18] = assay: A375 melanoma cell viability reduction, dose response, counter-screen for MITF modulator project, cherry-pick samples, set 2 (AID 540335); type: functional, cell-based; details: Homo sapiens
A-375 [19] = assay: MITF: Counter assay: A375 proliferation Measured in Cell-Based System Using Plate Reader - 2084-03_Inhibitor_Dose_DryPowder_Activity. [Related pubchem assays (depositor defined):AID488944]; type: functional; details: Homo sapiens

T3 sequence (Q9Y2T6 whole entry): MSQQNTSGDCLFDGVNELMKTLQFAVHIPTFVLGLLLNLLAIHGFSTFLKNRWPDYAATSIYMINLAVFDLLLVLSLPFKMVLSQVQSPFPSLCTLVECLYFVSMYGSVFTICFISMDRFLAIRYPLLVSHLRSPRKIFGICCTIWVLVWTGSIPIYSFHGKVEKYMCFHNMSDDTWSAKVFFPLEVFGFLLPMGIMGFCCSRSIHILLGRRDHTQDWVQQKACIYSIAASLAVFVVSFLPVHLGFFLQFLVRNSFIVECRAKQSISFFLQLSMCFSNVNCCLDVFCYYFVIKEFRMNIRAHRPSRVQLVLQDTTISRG
Sequence of Mu-type opioid receptor (P35372 whole entry): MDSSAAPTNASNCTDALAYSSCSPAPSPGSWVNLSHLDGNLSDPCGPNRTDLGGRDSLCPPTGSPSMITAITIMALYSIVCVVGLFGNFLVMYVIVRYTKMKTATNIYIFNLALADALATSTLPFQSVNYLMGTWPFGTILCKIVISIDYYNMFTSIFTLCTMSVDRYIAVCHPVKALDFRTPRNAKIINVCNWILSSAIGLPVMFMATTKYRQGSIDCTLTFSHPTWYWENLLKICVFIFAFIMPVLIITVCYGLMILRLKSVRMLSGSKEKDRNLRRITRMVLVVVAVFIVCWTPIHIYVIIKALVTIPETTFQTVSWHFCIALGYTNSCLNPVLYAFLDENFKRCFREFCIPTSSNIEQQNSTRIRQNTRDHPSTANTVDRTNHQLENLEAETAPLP
Sequence of 5-hydroxytryptamine receptor 5A (P47898 whole entry): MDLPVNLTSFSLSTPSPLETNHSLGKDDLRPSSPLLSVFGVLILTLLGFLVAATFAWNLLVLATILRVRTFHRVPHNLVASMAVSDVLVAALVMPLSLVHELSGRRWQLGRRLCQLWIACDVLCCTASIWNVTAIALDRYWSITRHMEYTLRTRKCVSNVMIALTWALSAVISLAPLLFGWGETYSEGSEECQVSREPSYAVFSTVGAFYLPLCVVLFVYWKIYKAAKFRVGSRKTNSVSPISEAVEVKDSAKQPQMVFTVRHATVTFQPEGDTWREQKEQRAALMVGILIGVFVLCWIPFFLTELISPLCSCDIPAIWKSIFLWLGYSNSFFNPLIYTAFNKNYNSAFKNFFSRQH
Sequence of Delta-type opioid receptor (P41143 whole entry): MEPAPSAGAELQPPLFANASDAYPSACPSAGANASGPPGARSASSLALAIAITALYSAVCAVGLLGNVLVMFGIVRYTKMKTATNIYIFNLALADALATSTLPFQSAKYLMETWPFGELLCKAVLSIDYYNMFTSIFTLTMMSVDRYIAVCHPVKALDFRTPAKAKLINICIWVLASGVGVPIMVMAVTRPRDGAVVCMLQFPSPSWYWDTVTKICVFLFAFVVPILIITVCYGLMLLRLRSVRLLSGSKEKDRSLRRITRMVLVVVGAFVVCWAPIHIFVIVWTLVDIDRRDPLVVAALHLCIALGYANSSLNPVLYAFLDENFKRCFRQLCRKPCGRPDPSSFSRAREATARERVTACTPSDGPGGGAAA

## COC(=O)NCC(c1ccc2c(c1)OCO2)N1CCN(c2ccccc2)CC1 (stereo not drawn)
[1]
  EC50: 0.105 µM (active)
[2]
  EC50: > 92.4 µM (inactive)
[3]
  EC50: > 92.4 µM (inactive)
Mu-type opioid receptor
  EC50: 17.3 µM (inactive)

## CCOC(=O)c1c(CSC(=N)N)n(-c2ccc(C)cc2)c2cc(Br)c(OC(C)=O)cc12
Insulin-degrading enzyme [4]
  EC50: > 54.7 µM (inactive)
HEK293 [5]
  EC50: > 54.7 µM (inactive)
Insulin-degrading enzyme [6]
  EC50: > 54.7 µM (inactive)
HEK293 [7]
  EC50: > 59.7 µM (inactive)
[8]
  IC50: 5.03 µM (active)
BJ [9]
  EC50: > 133 µM (inactive)
BJ [10]
  EC50: 5.98 µM (active)
[11]
  EC50: 9.02 µM (active)
[12]
  AC50: 4.79 µM (active)
Protein RecA
  EC50: 4.25 µM (active)
Vero
  CC50: > 25 µM (active)
HEK293 [13]
  IC50: 9.83 µM (active)
BJ [14]
  EC50: 12 µM (inconclusive)
BJ [15]
  EC50: 5.6 µM (active)
[16]
  EC50: > 32 µM (inactive)
HEK293 [17]
  EC50: > 59.7 µM (inactive)

## c1ccc2c(OCCCN3CCCCCC3)cccc2c1
Escherichia coli
  AC50: 19.6 µM (active)

## CCOc1ccc(/N=C(\C)C2=C(O)c3ccccc3C2=O)cc1
A-375 [18]
  AC50: > 35 µM (active)
A-375 [19]
  AC50: > 35 µM (active)
